Results as given in patent US20250054582A1, “METHOD OF IDENTIFYING A SOLVENT FOR A MATRIKINE” (THE BOOTS COMPANY PLC, priority 2021, published 2025).
Peptide text beside a SMILES is read from it.

Legend:
[1] = Qualitative solubility ranking of matrikines in reference solvents; format: physicochemical
Experimental: (§1) The HSP sphere of seven different matrikines was determined by using a range of reference solvents (solvents with known HSP spheres) to dissolve the matrikines. The reference solvents were then ranked based on their ability to dissolve the matrikines. A software package called Hansen Solubility Parameters in Practice (HSPiP) was then used to determine the HSPs of each of the matrikines.
In general, a set of around 20 standard reference solvents was used to carry out preliminary investigations in solubility tests. Following this, additional/fine-tuning (FT) solvents were selected and used to are used to optimise the reliability and definition of the solubility parameters of the matrikines.
All samples were prepared under standard conditions, within an air-conditioned laboratory environment, at 20° C. and a standard pressure.
Usually, samples are prepared on the Formax High-throughput Formulation System, manufactured by Chemspeed. However due to the small sample size, the samples of this project were prepared manually using a single channel pipette for liquids and an analytical balance for solids.
Qualitative evaluation of the solubility of the matrikines within a range of different reference solvents was used. Samples were placed into six categories, according to the relative extent to which the matrikine dissolved in the solvent.
Between these two extremes sit the other four ranking-categories, whose typical descriptions can be found in table 1 below.

[2] = HSPiP analysis: Hansen Solubility Sphere of the matrikine from solubility scores; format: physicochemical; parameters: δD / δP: unit not given here; conditions: for δD / δH / δP: Hansen Solubility Parameter of the peptide; for δD / δH / δP / R (Size of HSP Sphere): overall results summary; for δD value / δH value: in words, HSPiP fit of solubility scores; for radius: radius of the HSP sphere
Experimental: as §1
The use of qualitative rankings of solubility phenomena makes it possible to define a spheroidal cluster in which the most compatible samples are contained.
The scores from 1 to 6 were entered into the HSPiP data form and then the software analyses the data to produce a Hansen diagram of the solubility sphere, alongside details of the solubility parameters and the goodness of the fit of the data to the sphere, in text format.

[3] = Franz cell skin explant penetration with 3D OrbiSIMS analysis; format: in vitro ADME, human
Experimental: For ex vivo analysis, full thickness human skin tissue was removed during cosmetic surgery from Caucasian female donors (aged 35-70). The explant was frozen immediately post-surgery, shipped and stored at −20° C. prior to use.
The tissue was then defrosted, cut and mounted, dermal side down, in a Franz-type static diffusion cell set-up (Franz, 1975), with an exposed surface area of 1.1 cm^2. Infinite doses of the cosmetic formulations were applied to the donor chamber, with the explant exposed to the formulations for 1 hour in a water bath set to 36.5° C. Sink conditions were maintained throughout the experiments.
After 1 hour, the Franz cell was dismantled, excess formulation was removed with a dry sponge and the skin explant was wiped with a sponge soaked in Teepol Solution (3% v/v). Next, the explant was dehydrated under vacuum at room temperature for 24 hours before 3D OrbiSIMS analysis […]
A 20 KeV Ar3000+ analysis beam with a diameter of 20 μm was used as the primary ion source. Samples were analysed at ambient temperature across a 400×400 μm area in positive polarity with sawtooth raster mode and a total crater size of 486×486 μm. […] Mass spectra were recorded at a resolution of 240,000 at m/z 200 in the mass range of 75 to 1,125 m/z. […]

[4] = blend Glycerol Carbonate:Dimethyl Formamide:1-Propanol 55:25:20%

Row | solubility over the reference solvents tested (in words) [1] | greatest contribution to the cohesive energy density [2] | δD [2] | δH [2] | δP [2] | δD value [2] | δH value [2] | R (Size of HSP Sphere) [2] | radius [2] | dissolution (in words) ([1]; blend Benzyl Alcohol:2-Propanol 80:20%) | dissolution (in words) [1, 4] | dissolution (in words) ([1]; solvent N-Methyl Formamide) | dissolution (in words) ([1]; blend Propylene Carbonate:Propylene Glycol 65:35%) | dissolution (in words) ([1]; blend Propylene Glycol Monomethyl Ether:Propylene Carbonate 55:45%) | penetration into the skin tissues ([3]; formulation containing methyl gluceth-20 compared to glycerin only, 1 hour) | Pal-GHK peptide ion intensity in skin explant ([3]; formulation with glycerin+methyl gluceth-20 versus glycerin only, 1 hour in Franz cell, 3D OrbiSIMS) | Compound | dissolution (in words) ([1]; solvent 2-PhenoxyEthanol)
1 | very limited solubility | Dispersion forces | 18.84 | 14.82 | 12.04 | high | low | 6.8 MPa^0.5 | 6.8 units |  |  |  |  |  |  |  | CCCCCCCCCCCCCCCC(=O)N[C@@H](CC(C)C)C(=O)N[C@@H](CO)C(=O)N[C@H](C(=O)N[C@@H](CC(=O)O)C(=O)O)C(C)C [Pal-LSVD] (HELM PEPTIDE1{[CCCCCCCCCCCCCCCC(=O)[*:2]].L.S.V.D}$$$$V2.0) | 
2 |  |  |  |  |  |  |  |  |  | did not dissolve | did not dissolve | complete dissolution |  |  |  |  | CCCCCCCCCCCCCCCC(=O)NCC(=O)N[C@@H](CCC(N)=O)C(=O)N1CCC[C@H]1C(=O)N[C@@H](CCCNC(=N)N)C(=O)O [Pal-GQPR, N-palmitoyl-Gly-Gln-Pro-Arg] (HELM PEPTIDE1{[CCCCCCCCCCCCCCCC(=O)[*:2]].G.Q.P.R}$$$$V2.0) | most interaction with the product without complete dissolution
3 |  | Dispersion forces | 17.31 | 17.26 | 13.92 | moderate | moderate | 10.3 MPa^0.5 | 10.3 units |  |  |  |  |  |  |  | CCCCCCCCCCCCCCCC(=O)N[C@@H](CCC(=O)O)C(=O)N[C@@H](CCCCN)C(=O)NCC(=O)N[C@@H](CC(=O)O)C(=O)O [Pal-EKGD] (HELM PEPTIDE1{[CCCCCCCCCCCCCCCC(=O)[*:2]].E.K.G.D}$$$$V2.0) | 
4 |  | Dispersion forces | 17.61 | 10.95 | 10.66 | moderate | low | 6 MPa^0.5 | 6 units |  | didn't dissolve |  |  |  |  |  | CCCCCCCCCCCCCCCC(=O)N[C@@H](CCC(N)=O)C(=O)N[C@H](C(=O)N[C@@H](C)C(=O)N[C@H](C(=O)O)C(C)C)[C@@H](C)O [Pal-QTAV] (HELM PEPTIDE1{[CCCCCCCCCCCCCCCC(=O)[*:2]].Q.T.A.V}$$$$V2.0) | 
5 |  | Dispersion forces | 17.82 | 17.73 | 10.55 | moderate | moderate | 8.3 MPa^0.5 | 8.3 units |  |  |  | did not dissolve | did not dissolve |  |  | CCCCCCCCCCCCCCCC(=O)NCC(=O)N1CCC[C@H]1C(=O)N[C@@H](CCCCN)C(=O)NCC(=O)O [Pal-GPKG] (HELM PEPTIDE1{[CCCCCCCCCCCCCCCC(=O)[*:2]].G.P.K.G}$$$$V2.0) | 
6 | No samples showed complete dissolution | Dispersion forces | 17.83 | 11.22 | 6.57 | moderate | low | 3.5 MPa^0.5 | 3.5 units |  |  |  |  |  | penetrated quicker | more peptide ion present | CCCCCCCCCCCCCCCC(=O)NCC(=O)N[C@@H](Cc1c[nH]cn1)C(=O)N[C@@H](CCCCN)C(=O)O [Pal-GHK, N-Palmitoyl-Gly-His-Lys] (HELM PEPTIDE1{[CCCCCCCCCCCCCCCC(=O)[*:2]].G.H.K}$$$$V2.0) | 
